Results from patent US20260337162A1, “TRYPTAMINE COMPOUNDS, COMPOSITIONS, AND METHODS OF USE” (priority 2022, published 2026).

Experiments:
[1] = humans (TIHKAL; Erowid); cited from earlier work
5-HT2A receptor [2] = assay: Head-twitch response (HTR) and behavioral observation in mice; assay type: in vivo, adult, male C57BL/6J mice; conditions: 10 mg/kg PO, mice
Description: The HTR assay was performed in adult, male C57BL/6J mice, procured from the Jackson Laboratory (Bar Harbor, Maine), as previously described (Canal, C. E., and Morgan, D., 2012, Head-twitch response in rodents induced by the hallucinogen 2,5-dimethoxy-4-iodoamphetamine: a comprehensive history, a re-evaluation of mechanisms, and its utility as a model, Drug Test Anal 4, 556-576; Saraf, T. S., Felsing, D. E., Armstrong, J. L., Booth, R. G., and Canal, C. E., 2021, Evaluation of lorcaserin as an anticonvulsant in juvenile Fmr1 knockout mice, Epilepsy Res 175, 106677). Mice were housed in standard laboratory cages with ad libitum access to food and water, and were acclimated to the vivarium for at least one week prior to testing in a procedure room. On the day of testing, mice were acclimated to the procedure room in their home cages for ≥60 min before administration of test compounds. Test articles were administered at 10 mg/kg by oral gavage and mice were placed immediately thereafter in a clear, polycarbonate box (46×20×20 cm), and HTRs were counted for 30 consecutive minutes, using hand-held tally counters, by two trained observers who were blind to treatment.

5-HT2A receptor [3] = target: T1, 5-HT2A receptor (Homo sapiens, UniProt P28223); assay: Competition binding assay with [125I]DOI, 5-HT2A receptor; conditions: [125I]DOI radioligand; read-out: 5-HT2A affinity
T1 construct: expressed in transfected cells
Description: (§1) Binding affinity (Ki) and functional potency and efficacy (EC50 and EMAX) values of the compounds were measured.

5-HT2A receptor [4] = target: T1, 5-HT2A receptor; assay: 5-HT2A receptor functional screening assay (efficacy relative to maximal 5-HT response); assay type: cell-based; conditions: for activation at 0.5 µM: 500 nM
Description: (§2) 5-HT2 receptor-mediated Gq stimulation [phosphoinositide hydrolysis leading to the production of inositol phosphate 1 (IP1)]-canonical signaling pathways-were measured as previously described (Canal, C. E., Cordova-Sintjago, T., Liu, Y., Kim, M. S., Morgan, D., and Booth, R. G., 2013, Molecular pharmacology and ligand docking studies reveal a single amino acid difference between mouse and human serotonin 5-HT2A receptors that impacts behavioral translation of novel 4-phenyl-2-dimethylaminotetralin ligands, J Pharmacol Exp Ther 347, 705-716; Canal, C. E., Morgan, D., Felsing, D., Kondabolu, K., Rowland, N. E., Robertson, K. L., Sakhuja, R., and Booth, R. G., 2014, A Novel Aminotetralin-Type Serotonin (5-HT)(2C) Receptor —Specific Agonist and 5-HT2A Competitive Antagonist/5-HT2B Inverse Agonist with Preclinical Efficacy for Psychoses, J Pharm Exp Ther 349, 533), for example, with a homogeneous time-resolved fluorescence (HTRF) capable microplate reader (e.g., Mithras LB 940, Berthold) using commercially-available kits employing Fluorescence Resonance Energy Transfer (FRET) technology (e.g., IP-One HTRF (Cisbio) kits). Briefly, CHO-K1 or HEK293 cells expressing a single serotonergic 5-HT2 receptor subtype were incubated with test compounds and 5-HT or DOI (positive control) in stimulation buffer containing LiCl. After equilibration, the reaction was terminated with the donor and acceptor fluorescent conjugates in lysis buffer, and FRET was measured with a microplate reader (Berthold Mithras). Data were fit to non-linear curves to calculate potencies (e.g., EC50) and efficacies (e.g., EMAX), relative to positive controls (e.g., serotonin).

[5] = target: T2, human serotonin 5-HT2A receptor (Homo sapiens, UniProt P28223); assay: Radioligand ([3H]LSD) competition binding, 5-HT2A receptor; conditions: in words; up to 10 μM for partial competition
T2 construct: host or cells: HEK293 (ATCC CRL-1573)
Description: as §1
Radioligand competition binding was performed as previously described (Saraf, T. S., Felsing, D. E., Armstrong, J. L., Booth, R. G., and Canal, C. E., 2021, Evaluation of lorcaserin as an anticonvulsant in juvenile Fmr1 knockout mice, Epilepsy Res 175, 106677), with minor modifications, using human cloned 5-HT2A receptors. Plasmids encoding human serotonin 5-HT2A receptor cDNA were procured from the cDNA Resource Center. Human embryonic kidney cells (HEK293, ATCC CRL-1573) were grown in a cell incubator in 100 mm dishes with antibiotic-free Dulbecco's modified Eagle's medium containing 10% fetal bovine serum. Cells were transfected at ~85% confluency with 5-15 μg cDNA using TransIT-2020 reagent (Mirus Bio, Madison, Wisconsin). After approximately 48 hours, cell membrane was collected via centrifugation. For all experiments, serotonin (5-HT) hydrochloride was used as a positive control, and mianserin hydrochloride (10 μM) was used to define non-specific binding. Each cell membrane homogenate expressing 5-HT2A receptors was incubated at room temperature in 96-well plates with [^3H] […] Following equilibration, each sample was filtered rapidly under vacuum through fiberglass filters presoaked in a buffer and washed by vacuum several times with an ice-cold buffer. Filters were soaked with scintillation fluid and counts per minute were detected using photodetectors (Microbeta Scintillation Counter). […] Data shown are the results from all experiments combined. As is known, G protein-coupled receptors, including the 5-HT2A receptor, can exist in multiple conformations, and ligands, typically agonist ligands, have unique affinities for these conformations of the receptor (Kenakin, T. Theoretical Aspects of GPCR-Ligand Complex Pharmacology, Chem. Rev. 2017, 117, 1, 4-20). […] However, for simplicity reasons, affinity of these compounds are reported herein as fitted to the single-site model. The data point for −10 samples is total specific binding (no compound present), and −4 was interpolated to complete the binding curves to 0 specific binding.

in vitro = in vitro ADME, Male Sprague-Dawley rat; conditions: rat liver microsomes 0.5 mg/mL, 1 mM NADPH, test compound 1 μM, pH 7.4, 37° C.; read-out: RLM, t1/2
Description: Male Sprague-Dawley rat liver microsomes were purchased from XenoTech. The reaction mixture, minus NADPH, was prepared as described below. The test compound was added into the reaction mixture at a final concentration of 1 μM. The control compound, testosterone, was run simultaneously with the test compound in a separate reaction. The reaction mixture (without cofactor) was equilibrated in a shaking water bath at 37° C. for 5 minutes. The reaction was initiated by the addition of the cofactor, and the mixture was incubated in a shaking water bath at 37° C. Aliquots (150 μL) were withdrawn at 0, 5, 10, 20, 30, 60, and 120 minutes. Test compound and testosterone samples were immediately combined with 150 μL of ice-cold acetonitrile (ACN) containing 0.1% formic acid and internal standard to terminate the reaction. The samples were then mixed and centrifuged to precipitate proteins. All samples were assayed by LC-MS/MS using electrospray ionization. The peak area response ratio (PARR) of analyte to internal standard at each time point was compared to the PARR at time 0 to determine the percent remaining at each time point. Half-lives were calculated using GraphPad software, fitting to a single-phase exponential decay equation.

recombinant human MAO-A = recombinant human MAO-A (Homo sapiens, UniProt P21397); assay: in vitro; assay type: in vitro ADME; conditions: role: substrate, hrMAO-A 0.02 mg/mL, test compound 1 μM, pH 7.4, 37° C.
Description: hrMAO-A and MAO control were purchased from XenoTech. The reaction mixture was prepared as described below. The test compound was added into the reaction mixture at a final concentration of 1 μM. The positive control, kynuramine (25 μM), was run simultaneously with the test compound in a separate reaction. The reaction mixture (without test compounds or kynuramine) was equilibrated in a shaking water bath at 37° C. for 5 minutes. The reaction was initiated by the addition of the test compound or kynuramine, and the mixture was incubated in a shaking water bath at 37° C. Aliquots (150 μL) of the test compound reaction mixture were withdrawn at 0, 5, 10, 20, 30,60, and 120 minutes. Aliquots (150 μL) of the positive control reaction mixture were withdrawn at 0 and 30 minutes. Test compound and kynuramine samples were immediately combined with 150 AL of ice-cold 100% acetonitrile containing 0.1% formic acid and internal standard (0.2 μM metoprolol) to terminate the reaction. The samples were then mixed and centrifuged to precipitate proteins. All samples were assayed by LC-MS/MS. The peak area response ratio (PARR) of analyte to internal standard at each time point was compared to the PARR at time 0 to determine the percent remaining at each time point. Half-lives were calculated using GraphPad software, fitting to a single-phase exponential decay equation.

5-HT2B receptor = 5-HT2B receptor (Homo sapiens, UniProt P41595); assay: Dose-response 5-HT2B functional assay (IP1 formation); assay type: cell-based; conditions: for EC50 / 5-HT2B functional activity (in words): IP1 formation; for 5-HT2B functional activity (in words): dose-response; for Emax: percent of control agonist response
Description: (§3) FIG. 29 is a graph showing the dose-response 5-HT2B functional assay results as a percent of control agonist response for compounds III-2 and IV-21; tested in duplicate at the indicated concentrations and the EC50 values were determined by non-linear regression analysis of the concentration-response curves generated with mean replicate values using Hill equation curve fitting.
as §2
(§4) The results from tests of 5-HT2A functional activities of this series of compounds were also unexpected in the context of the unusual results observed from competition binding assays. […] Complete dose-response 5-HT2A and 5HT2B functional assays (measuring IP1 formation) were conducted for III-2 and IV-21 by a second, independent laboratory.

5-HT2A receptor [6] = target: T1, 5-HT2A receptor; assay: Dose-response 5-HT2A functional assay (IP1 formation); assay type: cell-based; conditions: for 5-HT2A functional activity (in words): dose-response
Description: as §3, with “27” for “29”, “5-HT2A” for “5-HT2B”, “compound II-2;” for “compounds III-2 and IV-21;”, “fitting;” for “fitting.”
as §3, with “28” for “29”, “5-HT2A” for “5-HT2B”, “fitting; and” for “fitting.”
as §2, §4

T1 sequence (P28223 whole entry): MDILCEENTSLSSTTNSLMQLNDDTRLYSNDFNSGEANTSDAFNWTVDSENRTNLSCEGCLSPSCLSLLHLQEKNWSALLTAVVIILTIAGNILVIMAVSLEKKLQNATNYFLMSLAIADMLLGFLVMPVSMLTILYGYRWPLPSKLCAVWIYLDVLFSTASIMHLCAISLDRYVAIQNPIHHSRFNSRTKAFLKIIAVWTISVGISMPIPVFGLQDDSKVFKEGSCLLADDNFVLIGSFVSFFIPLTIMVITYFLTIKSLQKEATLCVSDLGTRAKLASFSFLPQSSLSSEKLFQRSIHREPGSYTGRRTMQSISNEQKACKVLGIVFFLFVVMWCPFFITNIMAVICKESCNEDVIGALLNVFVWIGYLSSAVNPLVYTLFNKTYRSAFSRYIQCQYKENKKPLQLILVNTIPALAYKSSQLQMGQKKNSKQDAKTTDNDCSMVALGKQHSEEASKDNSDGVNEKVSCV
5-HT2B receptor, sequence (P41595 whole entry): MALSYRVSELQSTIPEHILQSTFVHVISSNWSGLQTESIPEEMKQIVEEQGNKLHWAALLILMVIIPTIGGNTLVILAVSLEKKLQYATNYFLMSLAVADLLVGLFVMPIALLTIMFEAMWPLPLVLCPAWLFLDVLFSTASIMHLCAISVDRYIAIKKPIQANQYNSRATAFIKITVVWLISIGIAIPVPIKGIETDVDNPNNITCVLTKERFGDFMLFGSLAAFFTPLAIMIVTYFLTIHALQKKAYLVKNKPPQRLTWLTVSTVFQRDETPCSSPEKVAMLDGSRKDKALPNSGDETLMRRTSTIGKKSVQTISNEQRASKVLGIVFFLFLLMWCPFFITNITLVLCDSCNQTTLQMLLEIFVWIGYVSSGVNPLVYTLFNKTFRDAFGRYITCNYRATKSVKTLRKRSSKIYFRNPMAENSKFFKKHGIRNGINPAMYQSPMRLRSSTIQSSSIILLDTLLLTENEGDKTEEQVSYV
T2 sequence (P28223 whole entry): as the sequence (P28223 whole entry) above
recombinant human MAO-A, sequence (P21397 whole entry): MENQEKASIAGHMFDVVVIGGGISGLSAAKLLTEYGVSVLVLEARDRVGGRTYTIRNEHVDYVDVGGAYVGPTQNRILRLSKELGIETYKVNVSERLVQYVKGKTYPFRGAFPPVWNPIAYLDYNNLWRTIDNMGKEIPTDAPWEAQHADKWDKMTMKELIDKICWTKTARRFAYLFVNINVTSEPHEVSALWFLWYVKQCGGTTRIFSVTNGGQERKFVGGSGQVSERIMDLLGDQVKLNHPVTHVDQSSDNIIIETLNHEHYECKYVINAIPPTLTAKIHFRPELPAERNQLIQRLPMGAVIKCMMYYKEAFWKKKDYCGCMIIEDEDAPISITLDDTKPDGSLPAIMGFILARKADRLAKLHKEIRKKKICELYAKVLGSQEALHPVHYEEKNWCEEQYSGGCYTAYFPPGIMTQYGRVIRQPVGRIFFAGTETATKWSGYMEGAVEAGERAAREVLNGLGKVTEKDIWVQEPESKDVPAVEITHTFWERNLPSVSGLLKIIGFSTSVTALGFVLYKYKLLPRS

## CCN(CC)CCc1c[nH]c2ccccc12 [DET, N,N-diethyltryptamine, reference compound]
[1]
  oral activity in humans: active orally in humans
5-HT2A receptor [2]
  elicitation of HTR (in words): inactive at eliciting the HTR
  qualitative behavioral changes: accelerated breathing, hyperlocomotion, hiccup responses, and chewing movements of mouth

## CN(CCc1c[nH]c2ccccc12)[S+]([O-])C(F)(F)F (centres unmarked) [II-15, N-(2-(1H-indol-3-yl)ethyl)-1,1,1-trifluoro-N-methylmethanesulfinamide]
5-HT2A receptor [3]
  Ki: > 3 µM
5-HT2A receptor [4]
  activation at 0.5 µM: -24.1%
  activation at 50 µM: -36.9%
5-HT2A receptor [4]; in vitro screening, II-15: both 500 nM and 50 μM
  5-HT2A functional activity (in words): inverse agonist efficacy

## CN(CCc1c[nH]c2ccccc12)CC(F)(F)F [II-19, N-(2-(1H-indol-3-yl)ethyl)-2,2,2-trifluoro-N-methylethan-1-amine]
[5]
  competition for [3H]LSD-labeled 5-HT2A receptors: only partial competition
In vitro
  half-life at 1 µM: 3.95 min

## FC(F)(F)CNCCc1c[nH]c2ccccc12 [II-20, N-(2-(1H-indol-3-yl)ethyl)-2,2,2-trifluoroethan-1-amine]
[5]
  competition for [3H]LSD-labeled 5-HT2A receptors: only partial competition
In vitro
  half-life at 1 µM: 7.63 min
Recombinant human MAO-A
  half-life at 1 µM: > 120 min

## Oc1cccc2[nH]cc(CCN(CCC(F)F)CCC(F)F)c12 [III-2, 3-(2-(bis(3,3-difluoropropyl)amino)ethyl)-1H-indol-4-ol]
5-HT2A receptor [4]
  activation at 0.5 µM: 58.3%
  activation at 50 µM: > 50%
5-HT2B receptor
  EC50: 96 nM
  5-HT2B functional activity (in words): partial agonist
  Emax: 65%
5-HT2A receptor [6]; IP1 formation
  EC50: 383 nM
  5-HT2A functional activity (in words): low potency, full agonist

## CN(CCc1c[nH]c2cccc(O)c12)CC(F)(F)F [III-13, 3-(2-(methyl (2,2,2-trifluoroethyl)amino)ethyl)-1H-indol-4-ol]
In vitro
  half-life at 1 µM: 4.5 min

## CN(C)CCc1c[nH]c2ccc(OC(F)(F)F)cc12 [IV-3, N,N-dimethyl-2-(5-(trifluoromethoxy)-1H-indol-3-yl) ethan-1-amine]
In vitro
  half-life at 1 µM: 13.1 min

## COc1ccc2[nH]cc(CCN(C)CCC(F)(F)F)c2c1 [IV-21, 3,3,3-trifluoro-N-(2-(5-methoxy-1H-indol-3-yl)ethyl)-N-methylpropan-1-amine]
5-HT2A receptor [4]
  activation at 0.5 µM: 29.5%
5-HT2B receptor
  EC50: 394 nM
  5-HT2B functional activity (in words): partial agonist
  Emax: 62%
5-HT2A receptor [6]; IP1 formation
  EC50: > 3000 nM
  5-HT2A functional activity (in words): low potency, EC50>3 μM, agonist
5-HT2A receptor [6]; dose-response curve had not plateaued at 3 μM
  EC50: > 3000 nM

## COc1ccc2[nH]cc(CCN(C)CC(F)(F)F)c2c1 [IV-40, 2,2,2-trifluoro-N-(2-(5-methoxy-1H-indol-3-yl)ethyl)-N-methylethan-1-amine]
In vitro
  half-life at 1 µM: 4.55 min
